Earlier results in patent US11599023B2, “Photosensitive resin composition, organic EL element barrier rib, and organic EL element” (SHOWA DENKO K.K., priority 2018, dated 2023).
Where two headings read alike, the source gives them in different places.

How the values were obtained:
[1] = not given; remark: listed apart in the source
[2] = Table 1, at 25° C., cited in Scifinder
[3] = Table 2, of the low molecular weight organic compound (B), cited in Scifinder
[4] = Table 1, at 20° C. and 1 atm, cited in Scifinder
[5] = at 20° C. and 1 atm, SciFinder database

Row | SMILES | pKa [2] | pKa [3] | pKa (at 25° C., SciFinder database) | Molar volume [1, 4] | Molar volume [1, 3] | Molar volume [1, 5]
1 | O=C(O)c1ccc(O)c(O)c1O [2,3,4-Trihydroxybenzoic acid] | 3.30 | 3.30 | 3.3 | 97.2 cm^3/mol | 97.2 cm^3/mol | 97.2 cm^3/mol
2 | O=C(O)c1cc(O)c(O)c(O)c1 [Gallic acid] |  |  |  | 97.2 cm^3/mol | 97.2 cm^3/mol | 97.2 cm^3/mol
3 | O=C(O)c1cccc(C(=O)O)c1C(=O)O [Hemimellitic acid] |  |  |  | 127.0 cm^3/mol | 127.0 cm^3/mol | 127 cm^3/mol
4 | CCCOC(=O)c1cc(O)c(O)c(O)c1 [Propyl gallate, reference compound] |  |  |  | 155.6 cm^3/mol | 155.6 cm^3/mol | 
5 | O=C(O)c1cc(C(=O)O)c(C(=O)O)cc1C(=O)O [Pyromellitic acid, reference compound] |  |  |  | 139.5 cm^3/mol | 139.5 cm^3/mol | 
6 | Oc1ccccc1O [catechol] |  |  |  |  |  | 86.2 cm^3/mol
7 | O=C(O)c1cccc(C(=O)O)c1 [isophthalic acid] |  |  |  |  |  | 114.4 cm^3/mol
8 | O=C(O)c1ccccc1C(=O)O [phthalic acid] |  |  |  |  |  | 114.4 cm^3/mol
9 | O=C(O)c1ccc(C(=O)O)c(C(=O)O)c1 [trimellitic acid] |  |  |  |  |  | 127.0 cm^3/mol
10 | O=C(O)c1cc(C(=O)O)cc(C(=O)O)c1 [trimesic acid] |  |  |  |  |  | 127.0 cm^3/mol

Other lines, results leading:

Row | pKa [2] | pKa [3] | pKa (at 25° C., SciFinder database) | Molar volume [1, 4] | Molar volume [1, 3] | Molar volume [1, 5] | SMILES
11 | 9.58 | 9.58 | 9.58 | 84.7 cm^3/mol | 84.7 cm^3/mol | 84.7 cm^3/mol | Oc1ccc(O)c(O)c1 [1,2,4-Benzenetriol]
12 | 7.38 | 7.38 |  | 161.2 cm^3/mol | 161.2 cm^3/mol |  | O=C(c1ccc(O)cc1)c1ccc(O)c(O)c1O [2,3,4,4′-Tetrahydroxybenzophenone, 2,3,4,4′-Tetrahydroxybenzophenone, reference compound]
13 | 2.96 | 2.96 | 2.96 | 98.8 cm^3/mol | 98.8 cm^3/mol | 98.8 cm^3/mol | O=C(O)c1cccc(O)c1O [2,3-Dihydroxybenzoic acid]
14 | 3.32 | 3.32 | 3.32 | 98.8 cm^3/mol | 98.8 cm^3/mol | 98.8 cm^3/mol | O=C(O)c1ccc(O)cc1O [2,4-Dihydroxybenzoic acid]
15 |  |  |  | 98.8 cm^3/mol | 98.8 cm^3/mol | 98.8 cm^3/mol | O=C(O)c1cc(O)ccc1O [2,5-Dihydroxybenzoic acid]
16 | 3.96 | 3.96 | 3.96 | 98.8 cm^3/mol | 98.8 cm^3/mol | 98.8 cm^3/mol | O=C(O)c1cc(O)cc(O)c1 [3,5-Dihydroxybenzoic acid]
17 | 8.11 | 8.11 |  | 151.3 cm^3/mol | 151.3 cm^3/mol |  | Oc1ccc(O)c2c(O)c3ccccc3c(O)c12 [Leucoquinizarin, reference compound]
18 | 9.23 | 9.23 |  | 229.7 cm^3/mol | 229.7 cm^3/mol |  | O=C1OC(c2ccc(O)cc2)(c2ccc(O)cc2)c2ccccc21 [Phenolphthalein, reference compound]
19 | 3.96 | 3.96 |  | 242.0 cm^3/mol | 242.0 cm^3/mol |  | O=C(O)c1ccccc1C(c1ccc(O)cc1)c1ccc(O)cc1 [Phenolphthalin, reference compound]
20 | 9.06 | 9.06 | 9.06 | 84.7 cm^3/mol | 84.7 cm^3/mol | 84.7 cm^3/mol | Oc1cc(O)cc(O)c1 [Phloroglucinol]
21 |  |  |  | 84.7 cm^3/mol | 84.7 cm^3/mol | 84.7 cm^3/mol | Oc1cccc(O)c1O [Pyrogallol]
22 |  |  | 9.58 |  |  | 86.2 cm^3/mol | Oc1ccc(O)cc1 [hydroquinone]
23 |  |  | 9.45 |  |  | 86.2 cm^3/mol | Oc1cccc(O)c1 [resorcinol]
24 |  |  |  |  |  | 114.4 cm^3/mol | O=C(O)c1ccc(C(=O)O)cc1 [terephthalic acid]
